Patent publication US20060112494A1, “Method of protecting an animal skin product from metalloproteinase activity” (priority 2004, published 2006)
Like-named read-outs stand apart in the source and are kept apart here.

Experiments:
Pseudomonas fluorescens = system: Pseudomonas fluorescens
Experimental: (§1) Nutrient agar amended with Azocoll (a substrate made up of insoluble particles of collagen impregnated with a bright azo dye) was used as the test medium to study collagenase activity. The nutrient agar was prepared and autoclaved and then was cooled to 55° C. Azocol was added to give a final concentration of 0.5%. […] Using a sterile spatula or cork-borer, the middle portion of each plate of about the size of a United States quarter, was scooped out. Fresh nutrient agar-azocoll medium containing no inhibitor was added to replace the scooped out portion of the plate. […] The bacteria were grown overnight on nutrient agar. A suspension of each culture was made in sterile water and used to inoculate the middle portion of each plate. The treated samples were incubated at 30° C. and evaluated after 24 hours, 2 days and 7 days for collagenase activity and also for the growth of the bacteria. The test cultures secreted collagenase into the medium as they grew to degrade the collagen in the azocoll medium, and collagenase activity was determined by visual inspection of the clear zone around the bacteria. All % are by weight percent of the active ingredient.

Aeromonas salmonicida = system: Aeromonas salmonicida; design: key to the marks not given beside the values; conditions: for Growth/Days 1: day 1; for Growth/Days 2: day 2; for Growth/Days 7: day 7
Experimental: as §1

collagenase [1] = system: collagenase
collagenase [2] = conditions: for Collagenase Activity/Days 2: day 2; for Collagenase Activity/Days 7: day 7; for Collagenase Activity/Days 1: day 1
[3] = Conc. 1.8%, column day 1, footnote d: data collected on day 2
[4] = Conc. 1.8%, column day 2, footnote e: data collected on day 3

Structure (SMILES): O=C(O)C[C@H](NCCN[C@@H](CC(=O)O)C(=O)O)C(=O)O [Na3EDDS, S,S′-ethylenediamine disuccinic acid]
- Growth/Days 1 (Pseudomonas fluorescens; Conc. 0.1%, day 1): ++++
- Growth/Days 2 (Pseudomonas fluorescens; Conc. 0.1%, day 2): ++++
- Growth/Days 7 (Pseudomonas fluorescens; Conc. 0.1%, day 7): ++++
- Growth/Days 1 (Pseudomonas fluorescens; Conc. 0.2%, day 1): ++++
- Growth/Days 2 (Pseudomonas fluorescens; Conc. 0.2%, day 2): ++++
- Growth/Days 7 (Pseudomonas fluorescens; Conc. 0.2%, day 7): ++++
- Growth/Days 1 (Pseudomonas fluorescens; Conc. 0.3%, day 1): ++++
- Growth/Days 2 (Pseudomonas fluorescens; Conc. 0.3%, day 2): ++++
- Growth/Days 7 (Pseudomonas fluorescens; Conc. 0.3%, day 7): ++++
- Growth/Days 1 (Pseudomonas fluorescens; Conc. 0.4%, day 1): ++++
- Growth/Days 2 (Pseudomonas fluorescens; Conc. 0.4%, day 2): ++++
- Growth/Days 7 (Pseudomonas fluorescens; Conc. 0.4%, day 7): ++++
- Growth/Days 1 (Pseudomonas fluorescens; Conc. 0.5%, day 1): ++++
- Growth/Days 2 (Pseudomonas fluorescens; Conc. 0.5%, day 2): ++++
- Growth/Days 7 (Pseudomonas fluorescens; Conc. 0.5%, day 7): ++++
- Growth/Days 1 (Pseudomonas fluorescens; Conc. 0.6%, day 1): ++++
- Growth/Days 2 (Pseudomonas fluorescens; Conc. 0.6%, day 2): ++++
- Growth/Days 7 (Pseudomonas fluorescens; Conc. 0.6%, day 7): ++++
- Growth/Days 1 (Pseudomonas fluorescens; Conc. 0.7%, day 1): ++++
- Growth/Days 2 (Pseudomonas fluorescens; Conc. 0.7%, day 2): ++++
- Growth/Days 7 (Pseudomonas fluorescens; Conc. 0.7%, day 7): ++++
- Growth/Days 1 (Pseudomonas fluorescens; Conc. 0.8%, day 1): ++++
- Growth/Days 2 (Pseudomonas fluorescens; Conc. 0.8%, day 2): ++++
- Growth/Days 7 (Pseudomonas fluorescens; Conc. 0.8%, day 7): ++++
- Growth/Days 1 (Pseudomonas fluorescens; Conc. 0.9%, day 1): ++++
- Growth/Days 2 (Pseudomonas fluorescens; Conc. 0.9%, day 2): ++++
- Growth/Days 7 (Pseudomonas fluorescens; Conc. 0.9%, day 7): ++++
- Growth/Days 1 (Pseudomonas fluorescens; Conc. 1%, day 1): ++++
- Growth/Days 2 (Pseudomonas fluorescens; Conc. 1%, day 2): ++++
- Growth/Days 7 (Pseudomonas fluorescens; Conc. 1%, day 7): ++++
- Growth/Days 1 (Pseudomonas fluorescens; Conc. 1.3%, day 1): ++++
- Growth/Days 2 (Pseudomonas fluorescens; Conc. 1.3%, day 2): ++++
- Growth/Days 7 (Pseudomonas fluorescens; Conc. 1.3%, day 7): ++++
- Growth/Days 1 (Pseudomonas fluorescens; Conc. 1.5%, day 1): ++++
- Growth/Days 2 (Pseudomonas fluorescens; Conc. 1.5%, day 2): ++++
- Growth/Days 7 (Pseudomonas fluorescens; Conc. 1.5%, day 7): ++++
- Growth/Days 1 (Pseudomonas fluorescens; [3]): ++++^d
- Growth/Days 2 (Pseudomonas fluorescens; [4]): ++++^e
- Growth/Days 7 (Pseudomonas fluorescens; Conc. 1.8%, day 7 (footnote f)): ++++^f
- Growth/Days 1 (Aeromonas salmonicida; Conc. 0.2%): ++++
- Growth/Days 2 (Aeromonas salmonicida; Conc. 0.2%): ++++
- Growth/Days 7 (Aeromonas salmonicida; Conc. 0.2%): ++++
- Growth/Days 1 (Aeromonas salmonicida; Conc. 0.5%): ++++
- Growth/Days 2 (Aeromonas salmonicida; Conc. 0.5%): ++++
- Growth/Days 7 (Aeromonas salmonicida; Conc. 0.5%): ++++
- Growth/Days 1 (Aeromonas salmonicida; Conc. 0.7%): ++++
- Growth/Days 2 (Aeromonas salmonicida; Conc. 0.7%): ++++
- Growth/Days 7 (Aeromonas salmonicida; Conc. 0.7%): ++++
- Growth/Days 1 (Aeromonas salmonicida; Conc. 1%): ++++
- Growth/Days 2 (Aeromonas salmonicida; Conc. 1%): ++++
- Growth/Days 7 (Aeromonas salmonicida; Conc. 1%): ++++
- Growth/Days 1 (Aeromonas salmonicida; Conc. 1.2%): ++++
- Growth/Days 2 (Aeromonas salmonicida; Conc. 1.2%): ++++
- Growth/Days 7 (Aeromonas salmonicida; Conc. 1.2%): ++++
- Growth/Days 1 (Aeromonas salmonicida; Conc. 1.3%): ++++
- Growth/Days 2 (Aeromonas salmonicida; Conc. 1.3%): ++++
- Growth/Days 7 (Aeromonas salmonicida; Conc. 1.3%): ++++
- Growth/Days 1 (Aeromonas salmonicida; Conc. 1.5%): ++++
- Growth/Days 2 (Aeromonas salmonicida; Conc. 1.5%): ++++
- Growth/Days 7 (Aeromonas salmonicida; Conc. 1.5%): ++++
- Growth/Days 1 (Aeromonas salmonicida; Conc. 1.8%): +++
- Growth/Days 2 (Aeromonas salmonicida; Conc. 1.8%): ++++
- Growth/Days 7 (Aeromonas salmonicida; Conc. 1.8%): ++++
- Growth/Days 1 (Aeromonas salmonicida; Conc. 2%): ++
- Growth/Days 2 (Aeromonas salmonicida; Conc. 2%): +++
- Growth/Days 7 (Aeromonas salmonicida; Conc. 2%): +++
- Collagenase Activity/Days 1 (collagenase [1]; Conc. 0.1%, day 1): ++++
- Collagenase Activity/Days 2 (collagenase [1]; Conc. 0.1%, day 2): ++++
- Collagenase Activity/Days 7 (collagenase [1]; Conc. 0.1%, day 7): ++++
- Collagenase Activity/Days 2 (collagenase [1]; Conc. 0.2%, day 2): ++++
- Collagenase Activity/Days 7 (collagenase [1]; Conc. 0.2%, day 7): ++++
- Collagenase Activity/Days 1 (collagenase [1]; Conc. 0.3%, day 1): 0
- Collagenase Activity/Days 2 (collagenase [1]; Conc. 0.3%, day 2): +++
- Collagenase Activity/Days 7 (collagenase [1]; Conc. 0.3%, day 7): ++++
- Collagenase Activity/Days 1 (collagenase [1]; Conc. 0.4%, day 1): 0
- Collagenase Activity/Days 2 (collagenase [1]; Conc. 0.4%, day 2): ++
- Collagenase Activity/Days 7 (collagenase [1]; Conc. 0.4%, day 7): ++++
- Collagenase Activity/Days 1 (collagenase [1]; Conc. 0.5%, day 1): 0
- Collagenase Activity/Days 7 (collagenase [1]; Conc. 0.5%, day 7): ++++
- Collagenase Activity/Days 1 (collagenase [1]; Conc. 0.6%, day 1): 0
- Collagenase Activity/Days 2 (collagenase [1]; Conc. 0.6%, day 2): 0
- Collagenase Activity/Days 7 (collagenase [1]; Conc. 0.6%, day 7): +
- Collagenase Activity/Days 1 (collagenase [1]; Conc. 0.7%, day 1): 0
- Collagenase Activity/Days 1 (collagenase [1]; Conc. 0.8%, day 1): 0
- Collagenase Activity/Days 2 (collagenase [1]; Conc. 0.8%, day 2): 0
- Collagenase Activity/Days 7 (collagenase [1]; Conc. 0.8%, day 7): 0
- Collagenase Activity/Days 1 (collagenase [1]; Conc. 0.9%, day 1): 0
- Collagenase Activity/Days 2 (collagenase [1]; Conc. 0.9%, day 2): 0
- Collagenase Activity/Days 7 (collagenase [1]; Conc. 0.9%, day 7): 0
- Collagenase Activity/Days 1 (collagenase [1]; Conc. 1%, day 1): 0
- Collagenase Activity/Days 1 (collagenase [1]; Conc. 1.3%, day 1): 0
- Collagenase Activity/Days 2 (collagenase [1]; Conc. 1.3%, day 2): 0
- Collagenase Activity/Days 1 (collagenase [1]; Conc. 1.5%, day 1): 0
- Collagenase Activity/Days 2 (collagenase [1]; Conc. 1.5%, day 2): 0
- Collagenase Activity/Days 7 (collagenase [1]; Conc. 1.5%, day 7): 0
- Collagenase Activity/Days 1 (collagenase [1]; [3]): 0^d
- Collagenase Activity/Days 2 (collagenase [1]; [4]): 0^e
- Collagenase Activity/Days 7 (collagenase [1]; Conc. 1.8%, day 7 (footnote f)): 0^f
- performance as collagenase inhibitors (summary in words) (collagenase [1]; collagenase produced by the bacteria studied, Table 1): performed very well as collagenase inhibitors
- Collagenase Activity/Days 2 (collagenase [2]; Conc. 0.2%): ++++
- Collagenase Activity/Days 7 (collagenase [2]; Conc. 0.2%): ++++
- Collagenase Activity/Days 1 (collagenase [2]; Conc. 0.5%): 0
- Collagenase Activity/Days 7 (collagenase [2]; Conc. 0.5%): ++++
- Collagenase Activity/Days 1 (collagenase [2]; Conc. 0.7%): 0
- Collagenase Activity/Days 1 (collagenase [2]; Conc. 1%): 0
- Collagenase Activity/Days 1 (collagenase [2]; Conc. 1.2%): 0
- Collagenase Activity/Days 2 (collagenase [2]; Conc. 1.2%): +
- Collagenase Activity/Days 7 (collagenase [2]; Conc. 1.2%): ++++
- Collagenase Activity/Days 1 (collagenase [2]; Conc. 1.3%): 0
- Collagenase Activity/Days 2 (collagenase [2]; Conc. 1.3%): 0
- Collagenase Activity/Days 1 (collagenase [2]; Conc. 1.5%): 0
- Collagenase Activity/Days 2 (collagenase [2]; Conc. 1.5%): 0
- Collagenase Activity/Days 7 (collagenase [2]; Conc. 1.5%): 0
- Collagenase Activity/Days 1 (collagenase [2]; Conc. 1.8%): 0
- Collagenase Activity/Days 2 (collagenase [2]; Conc. 1.8%): 0
- Collagenase Activity/Days 7 (collagenase [2]; Conc. 1.8%): 0
- Collagenase Activity/Days 1 (collagenase [2]; Conc. 2%): 0
- Collagenase Activity/Days 2 (collagenase [2]; Conc. 2%): 0
- Collagenase Activity/Days 7 (collagenase [2]; Conc. 2%): 0
- performance as collagenase inhibitors (summary in words) (collagenase [2]; collagenase produced by the bacteria studied, Table 2): performed very well as collagenase inhibitors
